Laboratory results published in patent publication US20240116951A1, “HETEROCYCLIC COMPOUNDS AND USES THEREOF” (Kumquat Biosciences Inc., priority 2022, published 2024).

Tests used:
Format in all cases: binding
KRAS G12S = molecular target: T1, KRAS G12S (Homo sapiens, UniProt P01116, G12S); test: HTRF assay of K-Ras G12S interaction with SOS1 (PPI-HTRF); conditions: 5 nM KRAS G12S, read-out: PPI-HTRF-5 nM KRAS G12S
T1 construct: made in house; host or cells: E. coli, e.g. BL21 (DE3)
From the text: (§1) This assay can be also used to assess a selective inhibition or reduction of signaling output of a mutant Ras protein relative to a wildtype, or relative to a different mutant Ras protein. For example, the equilibrium interaction of wildtype Kras or K-Ras mutant (e.g., wildtype or a mutant thereof including those mentioned in Example 4) with SOS1 (e.g., hSOS1) can be assessed as a proxy or an indication for a subject compound's ability to bind and inhibit Ras protein. HTRF assay detects from (i) a fluorescence resonance energy transfer (FRET) donor (e.g., antiGST-Europium) that is bound to GST-tagged K-Ras mutant to (ii) a FRET acceptor (e.g., anti-6His-XL665) bound to a His-tagged hSOS1.
(§2) The assay buffer can contain ˜5 mM HEPES pH 7.4, ˜150 mM NaCl, ˜1 mM DTT, 0.05% BSA and 0.0025% (v/v) Igepal. A Ras working solution is prepared in an assay buffer containing typically a suitable amount of the protein construct (e.g., GST-tagged K-Ras mutant) and the FRET donor (e.g., antiGST-Eu(K) from Cisbio, France). A SOS1 working solution is prepared in an assay buffer containing suitable amount of the protein construct (e.g., His-hSOS1) and the FRET acceptor (e.g., anti-6His-XL665 from Cisbio, France). A suitable amount of the protein construct will depend on the range of activity or range of IC50 values being detected or under investigation. For detecting IC50 within a range of 500 nM, the protein constructs of the same range of molarity can be utilized. […] A fixed volume of DMSO with or without test compound is transferred into a 384-well plate. Ras working solution is added to all wells of the test plate. SOS1 working solution is added to all wells except for those that are subsequently filled the inhibitor control solution. Upon incubation for about 10 minutes or longer, the fluorescence is measured with a M1000Pro plate reader (Tecan) using HTRF detection (excitation 337 nm, emission 1: 620 nm, emission 2: 665 nm). Compounds are tested in duplicates at different concentrations (for example, 10 μM, 2.5 μM, 0.63 μM, 0.16 μM, 0.04 μM, 0.01 μM test compound). The ratiometric data (i.e., emission 2 divided by emission 1) is used to calculate IC50 values against Ras using GraphPad Prism (GraphPad software). Following this general procedure, samples were tested with or without a subject compound disclosed herein including compounds exemplified in Table 1 to assess their abilities to inhibit a mutant K-Ras relative to another mutant K-Ras or wildtype K-Ras. Signaling output measured in terms of IC50 values can be obtained, a ratio of IC50 against one mutant relative to another mutant can be calculated. For instance, a selective reduction of K-Ras G12D signaling output can be evidenced by a ratio greater than one. In particular, a selective reduction of K-Ras G12D signaling relative to K-Ras WT signaling is evidenced as the ratio of IC50 (against K-Ras WT) to IC50 (against K-Ras G12D) is greater than 1.

KRAS WT = molecular target: T2, KRAS WT (Homo sapiens, UniProt P01116); test: HTRF assay of wildtype K-Ras interaction with SOS1 (PPI-HTRF); conditions: HTRF, 5 nM KRAS WT; read-out: PPI-HTRF-5 nM KRAS WT
T2 construct: made in house; host or cells: E. coli, e.g. BL21 (DE3)
T2 sequence (P01116 1-188 isoform P01116-2): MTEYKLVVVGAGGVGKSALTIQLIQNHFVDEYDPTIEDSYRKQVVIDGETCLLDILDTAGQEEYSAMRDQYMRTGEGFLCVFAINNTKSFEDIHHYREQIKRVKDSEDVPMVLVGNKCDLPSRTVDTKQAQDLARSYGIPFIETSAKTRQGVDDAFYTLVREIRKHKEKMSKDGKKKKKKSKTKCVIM
From the text: as §1, §2

KRAS G12D = molecular target: T3, KRAS G12D (Homo sapiens, UniProt P01116, G12D); test: HTRF assay of K-Ras G12D interaction with SOS1 (PPI-HTRF); conditions: HTRF, 5 nM KRAS G12D; read-out: PPI-HTRF-5 nM KRAS G12D
T3 construct: made in house; host or cells: E. coli, e.g. BL21 (DE3)
T3 sequence (P01116 1-188 isoform P01116-2 G12D): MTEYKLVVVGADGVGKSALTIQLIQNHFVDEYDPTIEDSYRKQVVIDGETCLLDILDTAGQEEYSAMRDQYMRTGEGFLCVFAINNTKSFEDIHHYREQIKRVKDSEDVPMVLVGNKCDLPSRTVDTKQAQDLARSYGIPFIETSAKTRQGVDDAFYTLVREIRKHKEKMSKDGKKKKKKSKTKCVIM
From the text: as §1, §2

T1 sequence (P01116 1-188 isoform P01116-2 G12S): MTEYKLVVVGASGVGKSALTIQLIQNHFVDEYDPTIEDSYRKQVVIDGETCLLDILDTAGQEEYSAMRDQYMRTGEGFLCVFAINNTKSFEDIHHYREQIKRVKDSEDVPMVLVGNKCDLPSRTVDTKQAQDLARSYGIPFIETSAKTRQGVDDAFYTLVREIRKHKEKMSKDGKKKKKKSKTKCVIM

Compound	IC50 (KRAS G12S) [µM]	IC50 (KRAS WT) [µM]	IC50 (KRAS G12D) [µM]
Nc1nc2c(-c3c(Cl)cc4c(N5CCCC6(CCCN6C(=O)n6cncn6)C5)nc(OC[C@@]56CCCN5C[C@H](F)C6)nc4c3F)ccc(F)c2s1 (stereo partly drawn) [Compound 211, (7-(7-(2-amino-7-fluorobenzo[d]thiazol-4-yl)-6-chloro-8-fluoro-2-(((2R,7aS)-2-fluorotetrahydro-1H-pyrrolizin-7a(5H)-yl)methoxy)quinazolin-4-yl)-1,7-diazaspiro[4.5]decan-1-yl)(1H-1,2,4-triazol-1-yl)methanone]	< 5	< 5	< 5
C#Cc1c(F)ccc2cc(O)cc(-c3ncc4c(N5CCC6(CCN6)C5)nc(O[C@@H](C)[C@@H]5CCCN5C)nc4c3F)c12 (stereo partly drawn) [Compound 239, 5-ethynyl-6-fluoro-4-(8-fluoro-2-((S)-1-((S)-1-methylpyrrolidin-2-yl)ethoxy)-4-(1,6-diazaspiro[3.4]octan-6-yl)pyrido[4,3-d]pyrimidin-7-yl)naphthalen-2-ol]	< 5	< 5	> 5
C[C@H](Oc1nc(N2CCCC3(CCN3C(=O)C3CC3(F)F)C2)c2cc(Cl)c(-c3ccc(F)c4sc(N)c(C#N)c34)c(F)c2n1)[C@@H]1CCCN1C (stereo partly drawn) [Compound 223, 2-Amino-4-(6-chloro-4-(1-(2,2-difluorocyclopropane-1-carbonyl)-1,6-diazaspiro[3.5]nonan-6-yl)-8-fluoro-2-((S)-1-((S)-1-methylpyrrolidin-2-yl)ethoxy)quinazolin-7-yl)-7-fluorobenzo[b]thiophene-3-carbonitrile]	< 5	< 5	< 5
N#Cc1c(N)sc2c(F)ccc(-c3c(Cl)cc4c(N5CCC6(CCCCN6C(=O)n6cncn6)C5)nc(OC[C@@]56CCCN5C[C@H](F)C6)nc4c3F)c12 (stereo partly drawn) [Compound 216, 4-(4-(6-(1H-1,2,4-triazole-1-carbonyl)-2,6-diazaspiro[4.5]decan-2-yl)-6-chloro-8-fluoro-2-(((2R,7aS)-2-fluorotetrahydro-1H-pyrrolizin-7a(5H)-yl)methoxy)quinazolin-7-yl)-2-amino-7-fluorobenzo[b]thiophene-3-carbonitrile]	< 5	< 5	< 5
N#Cc1c(N)sc2c(F)ccc(-c3c(Cl)cc4c(N5CCC6(CCN6C(=O)n6cnnn6)C5)nc(OC[C@@]56CCCN5C[C@H](F)C6)nc4c3F)c12 (stereo partly drawn) [Compound 293, 4-(4-(1-(1H-tetrazole-1-carbonyl)-1,6-diazaspiro[3.4]octan-6-yl)-6-chloro-8-fluoro-2-(((2R,7aS)-2-fluorotetrahydro-1H-pyrrolizin-7a(5H)-yl)methoxy)quinazolin-7-yl)-2-amino-7-fluorobenzo[b]thiophene-3-carbonitrile]	< 5	< 5	< 5
N#CCc1ncn(C(=O)N2CCC23CCN(c2nc(OC[C@@]45CCCN4C[C@H](F)C5)nc4c(F)c(-c5ccc(F)c6sc(N)c(C#N)c56)c(Cl)cc24)C3)n1 (stereo partly drawn) [Compound 320, 2-amino-4-(6-chloro-4-(1-(3-(cyanomethyl)-1H-1,2,4-triazole-1-carbonyl)-1,6-diazaspiro[3.4]octan-6-yl)-8-fluoro-2-(((2R,7aS)-2-fluorotetrahydro-1H-pyrrolizin-7a(5H)-yl)methoxy)quinazolin-7-yl)-7-fluorobenzo[b]thiophene-3-carbonitrile]	< 5	< 5	< 5
Nc1nc2c(-c3c(Cl)cc4c(N5CC6(CNCCN6)C5)nc(OC[C@@]56CCCN5C[C@H](F)C6)nc4c3F)ccc(F)c2s1 [Compound 205, 4-(6-chloro-8-fluoro-2-(((2R,7aS)-2-fluorotetrahydro-1H-pyrrolizin-7a(5H)-yl)methoxy)-4-(2,5,8-triazaspiro[3.5]nonan-2-yl)quinazolin-7-yl)-7-fluorobenzo[d]thiazol-2-amine]	< 5	< 5	< 5
C[C@H](Oc1nc(N2CCC3(CCN3C(=O)n3cncn3)C2)c2cc(Cl)c(-c3ccc(F)c4sc(N)c(C#N)c34)c(F)c2n1)[C@@H]1CCCN1C (stereo partly drawn) [Compound 207, 4-(4-(1-(1H-1,2,4-triazole-1-carbonyl)-1,6-diazaspiro[3.4]octan-6-yl)-6-chloro-8-fluoro-2-((S)-1-((S)-1-methylpyrrolidin-2-yl)ethoxy)quinazolin-7-yl)-2-amino-7-fluorobenzo[b]thiophene-3-carbonitrile]	< 5	< 5	< 5
N#Cc1c(N)sc2c(F)ccc(-c3c(F)c4nc(OC[C@@]56CCCN5C[C@H](F)C6)nc(N5CCC6(CCN6)C5)c4c(=O)n3C3CC3)c12 (stereo partly drawn) [Compound 333, 2-amino-4-(6-cyclopropyl-8-fluoro-2-(((2R,7aS)-2-fluorotetrahydro-1H-pyrrolizin-7a(5H)-yl)methoxy)-5-oxo-4-(1,6-diazaspiro[3.4]octan-6-yl)-5,6-dihydropyrido[4,3-d]pyrimidin-7-yl)-7-fluorobenzo[b]thiophene-3-carbonitrile]	< 5	< 5	< 5
Cc1ncn(C(=O)N2CC[C@]23CCN(c2nc(OC[C@@]45CCCN4C[C@H](F)C5)nc4c(F)c(-c5ccc(F)c6sc(N)c(C#N)c56)c(Cl)cc24)C3)n1 [Compound 222, 2-amino-4-(6-chloro-8-fluoro-2-(((2R,7aS)-2-fluorotetrahydro-1H-pyrrolizin-7a(5H)-yl)methoxy)-4-((S)-1-(3-methyl-1H-1,2,4-triazole-1-carbonyl)-1,6-diazaspiro[3.4]octan-6-yl)quinazolin-7-yl)-7-fluorobenzo[b]thiophene-3-carbonitrile]	< 5	< 5	< 5
N#Cc1c(N)sc2c(F)ccc(-c3c(Cl)cc4c(N5CCC6(CCCN6C(=O)C6CC6(F)F)CC5)nc(OC[C@@]56CCCN5C[C@H](F)C6)nc4c3F)c12 (stereo partly drawn) [Compound 341, 2-amino-4-(6-chloro-4-(1-(2,2-difluorocyclopropane-1-carbonyl)-1,8-diazaspiro[4.5]decan-8-yl)-8-fluoro-2-(((2R,7aS)-2-fluorotetrahydro-1H-pyrrolizin-7a(5H)-yl)methoxy)quinazolin-7-yl)-7-fluorobenzo[b]thiophene-3-carbonitrile]	< 5	< 5	< 5
N#Cc1c(N)sc2c(F)ccc(-c3c(Cl)cc4c(N5CCC6(CCN6C#N)C5)nc(OC[C@@]56CCCN5C[C@H](F)C6)nc4c3F)c12 (stereo partly drawn) [Compound 303, 6-(7-(2-amino-3-cyano-7-fluorobenzo[b]thiophen-4-yl)-6-chloro-8-fluoro-2-(((2R,7aS)-2-fluorotetrahydro-1H-pyrrolizin-7a(5H)-yl)methoxy)quinazolin-4-yl)-1,6-diazaspiro[3.4]octane-1-carbonitrile]	< 5	< 5	< 5
C[C@H]1N(c2nc(OC[C@@]34CCCN3C[C@H](F)C4)nc3c(F)c(-c4ccc(F)c5sc(N)c(C#N)c45)c(Cl)cc23)CC[C@@]12CCN2C(=O)n1cnc(C(F)F)n1 [Compound 325, 2-amino-4-(6-chloro-4-((4R,5R)-1-(3-(difluoromethyl)-1H-1,2,4-triazole-1-carbonyl)-5-methyl-1,6-diazaspiro[3.4]octan-6-yl)-8-fluoro-2-(((2R,7aS)-2-fluorotetrahydro-1H-pyrrolizin-7a(5H)-yl)methoxy)quinazolin-7-yl)-7-fluorobenzo[b]thiophene-3-carbonitrile]	< 5	< 5	< 5
